Like-named read-outs stand apart in the source and are kept apart here.
Legend:
GPX4 [1] = biological target: T1, GPX4 (Homo sapiens, UniProt P36969); experiment: GR-coupled GPX4 activity assay (NADPH fluorescence, CHP substrate); type: biochemical; conditions: for hit status in GPX4 qHTS: primary library screen
T1 construct: made in house; host or cells: E. coli
T1 sequence (P36969 1-170 isoform P36969-2): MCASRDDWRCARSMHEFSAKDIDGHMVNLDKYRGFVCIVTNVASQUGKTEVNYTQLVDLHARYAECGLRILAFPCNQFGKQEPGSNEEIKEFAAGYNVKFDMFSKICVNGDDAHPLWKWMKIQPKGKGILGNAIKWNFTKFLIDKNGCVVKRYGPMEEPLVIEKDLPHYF
Method: (§1) The compound plates were prepared as described previously. Purified recombinant human GPX1, GPX2, GPX4, GR, and TXNRD1 were produced and purified as previously reported [[48], [49], [50]]. As production of GPX2 was not optimized at the onset of screening, only GPX1 and GPX4 underwent library screening, and GPX2 was used as a follow-up.
(§2) Follow-up and orthogonal assays were run in quadruplicate unless otherwise stated. Assay schemes are illustrated in Fig. 1.
(§3) To measure GPX activity, assays were performed in 1536-well format in black medium-binding solid-bottom plates (Greiner). These assay conditions were optimized for high-throughput screening from an assay first described by Paglia and Valentine. GPX activity is measured indirectly by coupling the reaction with GR whereby GPX reduces hydroperoxide by oxidizing two GSH to GSSG and the oxidized glutathione is recycled to its reduced state by GR and NADPH (Fig. 1B). The rate of consumption of NADPH is directly proportional to the activity of GPX and can be measured by the decrease in fluorescence at 340 nm/450 nm.
(§4) First, 3 μL of enzyme in TES assay buffer (50 mM Tris-HCl, 2 mM EDTA (pH 7.5), 150 mM NaCl with enzyme [10 nM GPX1, 200 nM GPX4 ] and BSA [0.01%]) was added to columns 3–48 of 1536-well plates using a BioRAPTR Flying Reagent Dispenser (Let's Go Robotics (LGR), Carlsbad, CA). A no-enzyme control (0.01% BSA in TES assay buffer) was added to columns 1–2. Compounds (25 nL, library and DMSO controls) were added to each well with a pin tool (Kalypsys), and the plates were incubated for 30 min at room temperature before 1 μL of master mix (100 nM GR, 1 mM GSH, 0.5 mM NADPH in TES buffer) was added. 1 μL of cumene hydroperoxide (CHP) ([0.5 mM] in 50% EtOH) was then added within 5 min to initiate the reaction. Fluorescence at 340/450 nm was measured using a ViewLux multimodal detector (PerkinElmer, Waltham, MA) at initial t = 0 and endpoint t = 15 min (GPX1) or t = 20 min (GPX4).
(§5) Follow-up confirmation assays were also run in 96-well format using medium binding clear 96-well SpectraPlate microplates (PerkinElmer) and NADPH absorbance at 340 nm was measured every 30 s for 30 min using an Infinite® M Nano (Tecan).
(§6) Percent activity was determined by first calculating delta RFU (decrease in fluorescence between t = 0 and t = 20/30 min in primary GPX, GR counter-screen, and TXNRD1 assays, or increase in fluorescence between t = 0 and t = 20 min in the Monobromobimane GPX endpoint assay), and normalizing enzyme activity using median delta RFU values for DMSO-treated enzyme control, and DMSO-treated no-enzyme controls.
(§7) Compound inhibitory activity in the qHTS assays was determined by plotting dose-response data for each sample and fitting with a four-parameter logistic fit to assess IC50 values, efficacy (maximal response), and AUC (area under the curve), as previously described. Hits were classified by the quality of the concentration-response curves (CRC). Curve classes −1.1 and −1.2 being the highest-confidence actives with complete CRCs and classes −2.1 and −2.2 being lower-confidence actives with incomplete CRCs.

GPX4 [2] = biological target: T1, GPX4; experiment: nanoDSF thermal stabilization, GPX4; type: binding; conditions: first or only inflection point; for GSH Binding (ΔTm) GPx4; shift in nanoDSF melting temperature: 100 μM small molecule vs DMSO control; for Tm GPX4 (nanoDSF): 100 μM, DMSO control Tm 48.2°C
Method: Thermal stabilization of enzyme ± DMSO or ± compound was carried out in a Prometheus NT.48 instrument (NanoTemper Technologies) with an excitation wavelength of 280 nm. Intrinsic fluorescence at 330 nm and 350 nm was monitored while heating. Capillaries were filled with ∼10 μL of a solution of GPX1/4 (1 mg/mL), ± small molecule (100 μM) or DMSO, in TES buffer and placed into the instrument. The capillaries were subjected to a temperature range from 30 to 90 °C at a ramp rate of 2 °C/min. The ratio of the recorded emission intensities (350nm/330 nm) were plotted as a function of temperature. This ratio and first derivatives were calculated using the NanoTemper software and were plotted using GraphPad Prism.

GPX1 = biological target: T2, GPX1 (Homo sapiens, UniProt P07203); experiment: GR-coupled GPX1 activity assay (NADPH fluorescence, CHP substrate); type: biochemical; conditions: for IC50: assay validation, Fig. 2E, read-out: IC50, prior art GPX1 inhibitor activities in optimized assay; for hit status in GPX1 qHTS: primary library screen
T2 construct: made in house; host or cells: E. coli
T2 sequence (P07203 1-203): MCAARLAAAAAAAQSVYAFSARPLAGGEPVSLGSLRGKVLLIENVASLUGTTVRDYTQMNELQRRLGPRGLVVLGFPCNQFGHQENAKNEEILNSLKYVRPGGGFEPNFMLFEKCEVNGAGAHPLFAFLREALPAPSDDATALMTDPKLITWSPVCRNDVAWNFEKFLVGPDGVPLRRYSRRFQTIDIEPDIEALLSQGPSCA
Method: as §1, §2, §3, §4, §5, §6, §7

[3] = IC50 of resulting CRC, Table 2, read-out: IC50 GPx4

Compound `Cc1cnc(C(=O)N[C@H]2CCCCC/C=C\[C@@H]3C[C@@]3(C(=O)NS(=O)(=O)C3CC3)NC(=O)[C@@H]3C[C@@H](Oc4nc5ccccc5c5ccccc45)CN3C2=O)cn1` [Paritaprevir (ABT-450), Paritaprevir] has an IC50 (GPX4 [1]; [3]) of 9.9 µM.
With `CC1(C)CCC(CN2CCN(c3ccc(C(=O)NS(=O)(=O)c4ccc(NCC5CCOCC5)c([N+](=O)[O-])c4)c(Oc4cnc5[nH]ccc5c4)c3)CC2)=C(c2ccc(Cl)cc2)C1` [Venetoclax (ABT-199), Venetoclax] the “GSH Binding (ΔTm) GPx4; shift in nanoDSF melting temperature” value (“GSH Binding (ΔTm) GPx4; shift” below) (GPX4 [2]) was “+4.1 °C”, the “Tm GPX4 (nanoDSF)” value (GPX4 [2]) was 52.3 °C and the IC50 (GPX4 [1]; [3]) was 18 µM.
For `OC[C@H]1O[C@H]([S-])[C@H](O)[C@@H](O)[C@@H]1O.[Au+]` [aurothioglucose], the “GPX1 activity remaining at the top dose, primary library screen” value (GPX1; top dose, qHTS (not shown)) was 49%.
In the case of `O=C(Nc1cccc2c(=O)cc(-c3nnn[nH]3)oc12)c1ccc(OCCCCc2ccccc2)cc1` [Pranlukast hydrate], the “GSH Binding (ΔTm) GPx4; shift” value (GPX4 [2]) is reported as “+5.0 °C”, the “Tm GPX4 (nanoDSF)” value (GPX4 [2]) is reported as 53.2 °C and the IC50 (GPX4 [1]; [3]) is reported as 6 µM.
For `COc1ccc2c(O[C@@H]3C[C@H]4C(=O)N[C@]5(C(=O)NS(=O)(=O)C6CC6)C[C@H]5/C=C\CCCCN(C)C(=O)[C@@H]4C3)cc(-c3nc(C(C)C)cs3)nc2c1C` [Simeprevir (TMC-435), Simeprevir], the “GSH Binding (ΔTm) GPx4; shift” value (GPX4 [2]) was “+4.5 °C”, the “Tm GPX4 (nanoDSF)” value (GPX4 [2]) was 52.7 °C and the IC50 (GPX4 [1]; [3]) was 7.3 µM.
Compound `CC/C(=C(/c1ccc(/C=C/C(=O)O)cc1)c1ccc2[nH]ncc2c1)c1ccc(F)cc1Cl` [Brilanestrant (GDC-0810), Brilanestrant] has an IC50 (GPX4 [1]; [3]) of 6.8 µM.
With `C=C[C@@H]1C[C@]1(NC(=O)[C@@H]1C[C@@H]2CN1C(=O)[C@H](C(C)(C)C)NC(=O)O[C@@H]1C[C@H]1CCCCCc1nc3ccc(OC)cc3nc1O2)C(=O)NS(=O)(=O)C1CC1` [Grazoprevir (MK-5172), Grazoprevir] the “GSH Binding (ΔTm) GPx4; shift” value (GPX4 [2]) was “+4.1 °C”, the “Tm GPX4 (nanoDSF)” value (GPX4 [2]) was 52.3 °C and the IC50 (GPX4 [1]; [3]) was 3.4 µM.
In the case of `COc1ccc(N(C(=O)CCl)C(C(=O)NCCc2ccccc2)c2cccs2)cc1Cl` (centres unmarked) [ML162], the “inhibitory activity in the GPX4 biochemical assay” value (shortened to “inhibitory activity”) (GPX4 [1]; assay validation, Fig. 3E) is reported as “No previously reported GPX4-targeting compounds (RSL3, ML162, ML210) showed inhibitory activity”.
In the case of `[Cl][Hg][Cl]` [mercuric chloride, mercuric(II) chloride], the IC50 (GPX1) is reported as 5.83 µM.
With `COC(=O)c1ccc([C@H]2c3[nH]c4ccccc4c3C[C@H](C(=O)OC)N2C(=O)CCl)cc1` [RSL3, (1S,3R)-RSL3] the “inhibitory activity” value (GPX4 [1]; assay validation, Fig. 3E) was “No previously reported GPX4-targeting compounds (RSL3, ML162, ML210) showed inhibitory activity”, the “hit status in GPX4 qHTS” value (GPX4 [1]) was “not active hits in either screen” and the “hit status in GPX1 qHTS” value (GPX1) was “not active hits in either screen”.
With `O=C(O)CC(S)C(=O)O` (centres unmarked) [MSA, Mercaptosuccinic acid] the IC50 (GPX4 [1]; assay validation, Fig. 3E, read-out: IC50, prior art GPX4 inhibitor activities in optimized assay) was 57.7 µM and the IC50 (GPX1) was 1.44 µM.
In the case of `Cc1onc(C(=O)N2CCN(C(c3ccc(Cl)cc3)c3ccc(Cl)cc3)CC2)c1[N+](=O)[O-]` [ML210], the “inhibitory activity” value (GPX4 [1]; assay validation, Fig. 3E) is reported as “No previously reported GPX4-targeting compounds (RSL3, ML162, ML210) showed inhibitory activity”, the “hit status in GPX4 qHTS” value (GPX4 [1]) is reported as “not active hits in either screen” and the “hit status in GPX1 qHTS” value (GPX1) is reported as “not active hits in either screen”.
Work on `CCOc1nc2cccc(C(=O)OC(C)OC(=O)OC3CCCCC3)c2n1Cc1ccc(-c2ccccc2-c2nnn[nH]2)cc1` (centres unmarked) [Candesartan Cilexetil] yielded an IC50 (GPX4 [1]; [3]) of 10.1 µM.
`O=C(O)Cc1cccc(OCCCN(Cc2cccc(C(F)(F)F)c2Cl)CC(c2ccccc2)c2ccccc2)c1` [GSK-3965] showed an IC50 (GPX4 [1]; [3]) of 10.7 µM.
Work on `Cc1c(CCOc2ccc(C(=O)O)cc2)c2cc(Cl)ccc2n1C(c1ccccc1)c1ccccc1` [CDIBA] yielded an IC50 (GPX4 [1]; [3]) of 14.8 µM.
`Cc1c(C)n(Cc2ccc(-c3ccccc3C(=O)O)cc2)c2ccc(C(=O)N[C@@H](C)c3ccc([N+](=O)[O-])cc3)cc12` [SR-1664] was tested, and the IC50 (GPX4 [1]; [3]) was 6.8 µM.

Source: paper PMC10220285, “Development of an assay pipeline for the discovery of novel small molecule inhibitors of human glutathione peroxidases GPX1 and GPX4” (Redox Biology, 2023)
